Where a name gives a salt, the structure may show the parent alone. Read-outs that look alike come from different tables or passages of the source.
Key:
[1] = target: KRAS protein containing G12D mutation (Homo sapiens (Human), UniProt P01116, G12D); test: SOS-catalyzed nucleotide exchange assay (GNE), TR-FRET; format: biochemical; conditions: biotinylated KRAS G12D, SOS and GTP, 60-minute incubation
Protocol: Compounds are added to this complex and then after a 60-minute incubation time the mixture is treated with SOS and unlabeled GTP. Small molecule inhibitors stabilize the Bodipy-GDP complex whereas the untreated protein rapidly exchanges Bodipy-GDP for unlabeled GTP resulting in reduced TR-FRET signal.
This solution is referred to as biotinylated KRAS G12D stock solution.

[2] = test system: AsPC-1 cells containing homozygous KRAS-G12D activating mutation; test: Cellular phospho-ERK assay with 10% FBS (Examples 107a-256); format: cell-based
Protocol: 5% CO2 for 2 hours. […] Assay plates were read on a EnVision Multimode Plate Reader (PerkinElmer) and the ratio of p-Erk vs total Erk in each well was used as the final readout.

[3] = Homo sapiens, ASPC1, 2 h, read-out: IC50 (nM) pERK (cell with FBS 10%), AsPC-1 cells, 10% fetal bovine serum, 2 hours, ratio of p-Erk vs total Erk
[4] = read-out: IC50 (nM) pERK (cell with FBS 10%), AsPC-1 cells, 10% fetal bovine serum, 2 hours, ratio of p-Erk vs total Erk
[5] = Homo sapiens, ASPC1, 2 h, read-out: IC50 (nM) pERK (cell with FBS 10%)

Row | Compound | IC50 [1] [nM] | IC50 [2, 4] [nM] | further results
1 | [2H]c1c([2H])c(C#C)c2c(-c3c(F)cc4c(N5C[C@H]6CC[C@@](C)(C5)N6)nc(OC[C@@]56CCCN5C[C@H](F)C6)nc4c3F)c([2H])c([2H])c([2H])c2c1[2H] [compound 241, 7-(8-ethynylnaphthalen-1-yl-2,3,4,5,6,7-d6)-6,8-difluoro-2-(((2R,7aS)-2-fluorotetrahydro-1H-pyrrolizin-7a(5H)-yl)methoxy)-4-((1S,5R)-1-methyl-3,8-iazabicyclo[3.2.1]octan-3-yl)quinazoline, 2TFA] | 8.63 | – | IC50 [2, 3]: 1760 nM
2 | C#Cc1cccc2scc(-c3c(F)cc4c(N5CC6CC[C@@](C)(C5)N6)nc(OCC5(CN6CCOCC6)CC5)nc4c3F)c12 (single isomer, unassigned) [Ex. 147b] | 429 | 10200 | –
3 | CN(C)C[C@@]1(COc2nc(N3C[C@H]4CC[C@@](C)(C3)N4)c3cc(C#N)c(-c4cc(O)cc5ccccc45)c(F)c3n2)CC1(F)F [136b, 2-(((R)-1-((dimethylamino)methyl)-2,2-difluorocyclopropyl)methoxy)-8-fluoro-7-(3-hydroxynaphthalen-1-yl)-4-((1S,5R)-1-methyl-3,8-diazabicyclo[3.2.]octan-3-yl)quinazoline-6-carbonitrile] | 32.4 | 2380 | –
4 | C#Cc1cccc2cc(O)c(F)c(-c3c(F)cc4c(N5CC6CC[C@@](C)(C5)N6)nc(OC[C@@]56CCCN5C[C@H](F)C6)nc4c3F)c12 (single isomer, unassigned) [Ex. 192a] | 1.17 | 114 | –
5 | C[C@@]12CC[C@H](CN(c3nc(OC[C@@]45CCCN4C[C@H](F)C5)nc4c(F)c(-c5cc(O)cc6ccc(F)c(Cl)c56)c(F)cc34)C1)N2 (single isomer, unassigned) [Ex. 176a] | 1.91 | – | IC50 [2, 3]: 400 nM
6 | C[C@]12CCC(CN(c3nc(OCC45CCCN4CC(C(F)F)C5)nc4c(F)c(-c5cc(O)cc6cccc(Cl)c56)c(F)cc34)C1)N2 (single isomer, unassigned) [Ex. 173-1a] | 8.43 | 1570 | –
7 | Cc1cc(N)nc(-c2c(Cl)cc3c(N4C[C@H]5CC[C@@H](C4)N5)nc(OC[C@@]45CCCN4C[C@H](F)C5)nc3c2F)c1C(F)(F)F [Ex. 228b, 6-(4-((1R,5S)-3,8-diazabicyclo[3.2.1]octan-3-yl)-6-chloro-8-fluoro-2-(((2R,7aS)-2-fluorotetrahydro-1H-pyrrolizin-7a(5H)-yl)methoxy)quinazolin-7-yl)-4-methyl-5-(trifluoromethyl)pyridin-2-amine] | 2.43 | – | IC50 [2, 5]: 64.4 nM
8 | Cc1c(C(F)(F)F)c(-c2c(F)cc3c(N4CC5CCC(C4)N5)nc(OC[C@@]45CCCN4C[C@H](F)C5)nc3c2F)c2cn[nH]c2c1F (single isomer, unassigned) [Ex. 166a] | 944 | 30000 | –
9 | C[C@]12CC[C@H](CN(c3nc(OC[C@@]45CCCN4C[C@H](F)C5)nc4c(F)c(-c5cc(N)c(F)c6cccc(Cl)c56)c(F)cc34)C1)N2 (single isomer, unassigned) [Ex. 163b] | 4740 | 35600 | –
10 | C[C@]12CC[C@H](CN(c3nc(OC[C@@]45CCCN4C[C@H](F)C5)nc4c(F)c(-c5cc(O)cc6cccc(C7CC7)c56)c(F)cc34)C1)N2 [Ex. 159, 5-cyclopropyl-4-(6,8-difluoro-2-(((2R)-2-fluorotetrahydro-1H-pyrrolizin-7a(5H)-yl)-methoxy)-4-((1S,5R)-1-methyl-3,8-diaza-bicyclo[3.2.1]octan-3-yl)quinazolin-7-yl)-naphthalen-2-ol] | 4.28 | – | IC50 [2, 3]: 139 nM
11 | C#Cc1cccc2cc(O)c(C)c(-c3c(F)cc4c(N5CC6CC[C@@](C)(C5)N6)nc(OC[C@@]56CCCN5C[C@H](F)C6)nc4c3F)c12 (single isomer, unassigned) [Ex. 204b] | 23.4 | 443 | –
12 | C#Cc1c(F)ccc2cc(O)cc(-c3c(F)cc4c(N5CC6CC[C@@](C)(C5)N6)nc(OC[C@@]56CCCN5C[C@H](F)C6)nc4c3F)c12 (single isomer, unassigned) [Ex. 177a] | 0.8 | 12.7 | –
13 | C#Cc1cccc2cc(O)cc(-c3c(F)cc4c(N5CC6CC[C@@](C)(C5)N6)nc(OCC5(CN6CC[C@@H](F)C6)CC5)nc4c3F)c12 (single isomer, unassigned) [Ex. 169] | 0.7 | – | IC50 [2, 5]: 73 nM
14 | C[C@]12CCC(CN(c3nc(OC[C@@]45CCCN4C[C@H](F)C5)nc4c(F)c(-c5cc(O)cn6ncc(Cl)c56)c(F)cc34)C1)N2 (single isomer, unassigned) [Ex. 230a, TFA] | 30.9 | – | IC50 ([2]; read-out: IC50 (nM) pERK (cell with FBS 10%), AsPC-1 cells, 10% fetal bovine serum, 2 hours, ratio of p-Erk vs total Erk, TFA): 1450 nM
15 | Nc1cc2cccc(Cl)c2c(-c2c(F)cc3c(N4C[C@H]5CC[C@@H](C4)N5)nc(OC[C@@]45CCCN4C[C@H](F)C5)nc3c2F)n1 [Ex. 132, 1-(4-((1R,5S)-3,8-diazabicyclo[3.2.1]octan-3-yl)-6,8-difluoro-2-(((2R,7aS)-2-fluorotetrahydro-1H-pyrrolizin-7a(5H)-yl)methoxy)quinazolin-7-yl)-8-chloroisoquinolin-3-amine] | 347 | – | IC50 [2, 3]: 5580 nM
16 | Cc1nc2[nH]nc(C)c2c(-c2c(F)cc3c(N4C[C@H]5CC[C@@H](C4)N5)nc(OC[C@@]45CCCN4C[C@H](F)C5)nc3c2F)c1C(F)(F)F (single isomer, unassigned) [250b] | 1.54 | 63.1 | –
17 | C[C@]12CC[C@H](CN(c3nc(OCC4(CN5CCCC(O)(C(F)(F)F)C5)CC4)nc4c(F)c(-c5cc(O)cc6cccc(Cl)c56)c(F)cc34)C1)N2 (mixture of isomers) [Ex. 207, rac-1-((1-(((7-(8-chloro-3-hydroxynaphthalen-1-yl)-6,8-difluoro-4-((1S,5R)-1-methyl-3,8-diazabicyclo-[3.2.1]octan-3-yl)quinazolin-2-yl)oxy)methyl)cyclo-propyl)methyl)-3-trifluoromethyl)piperidin-3-ol] | 767 | 30000 | –
18 | C[C@]12CCC(CN(c3nc(OC[C@@]45CCCN4C[C@H](F)C5)nc4c(F)c(-c5cc(O)cc(Cl)c5C(F)(F)F)c(F)cc34)C1)N2 (single isomer, unassigned) [Ex. 183b] | 3.95 | 190 | –
19 | C#Cc1cccc2cc(O)c(C)c(-c3c(F)cc4c(N5CC6CC[C@@](C)(C5)N6)nc(OC[C@@]56CCCN5C[C@H](F)C6)nc4c3F)c12 (single isomer, unassigned) [Ex. 204a] | 1.13 | 64.2 | –
20 | C[C@]12CCC(CN(c3nc(OC[C@@]45CCCN4C[C@H](F)C5)nc4c(F)c(-c5cc(O)cc6cc(F)cc(Cl)c56)c(F)cc34)C1)N2 (single isomer, unassigned) [Ex. 180a] | 6.48 | 1040 | –
21 | 2,2,2-trifluoroacetaldehyde-6-(6-chloro-8-fluoro-2-(((2R,7aS)-2-fluorotetrahydro-1H-pyrrolizin-7a(5H)-yl)methoxy)-4-((1S,5R)-1-methyl-3,8-diazabicyclo[3.2.1]octan-3-yl)quinazolin-7-yl)-4-methyl-5-(trifluoromethyl)pyridin-2-amine (1/1) [Ex. 238b] | 2710 | 21100 | –
22 | Oc1cc(Cl)c(C(F)(F)F)cc1-c1c(F)cc2c(N3CC4CCC(C3)N4)nc(OC[C@@]34CCCN3C[C@H](F)C4)nc2c1F (single isomer, unassigned) [Ex. 256] | 246 | – | IC50 [2, 3]: 5870 nM
23 | CCC(=O)Oc1cc(-c2c(F)cc3c(N4CC5CC[C@@](C)(C4)N5)nc(OC[C@@]45CCCN4C[C@H](F)C5)nc3c2F)c2c(Cl)cccc2c1 (single isomer, unassigned) [Ex. 162a] | 23.1 | 659 | –
24 | C[C@]12CC[C@H](CN(c3nc(OC[C@@]45CCCN4C[C@H](F)C5)nc4c(F)c(-c5cc(O)cc(Cl)c5Cl)c(F)cc34)C1)N2 (single isomer, unassigned) [Ex. 129b, HCl] | 14.1 | – | IC50 ([2]; read-out: IC50 (nM) pERK (cell with FBS 10%), AsPC-1 cells, 10% fetal bovine serum, 2 hours, ratio of p-Erk vs total Erk, HCl): 3010 nM
25 | C#Cc1cccc2cc(O)c(F)c(-c3c(F)cc4c(N5CC6CC[C@@](C)(C5)N6)nc(OC[C@@]56CCCN5C[C@H](F)C6)nc4c3F)c12 (single isomer, unassigned) [Ex. 192b] | 37 | 1570 | –
26 | C#Cc1cccc2cc(N)nc(-c3c(F)cc4c(N5CC6CCC(C5)N6)nc(OC[C@@]56CCCN5C[C@H](F)C6)nc4c3F)c12 (single isomer, unassigned) [Ex. 148a] | 13.6 | 235 | –
27 | CN(C)CC1(COc2nc(N3C[C@H]4CC[C@@](C)(C3)N4)c3cc(F)c(-c4cc(O)cc5ccccc45)c(F)c3n2)CC1C(=O)O (stereo partly drawn) [Ex. 107, 2-(((6,8-difluoro-7-(3-hydroxynaphthalen-1-yl)-4-((1S,5R)-1-methyl-3,8-diazabicyclo[3.2.1]octan-3-yl)quinazolin-2-yl)oxy)methyl)-2-((dimethylamino)methyl)cyclopropane-1-carboxylc acid] | 25.4 | 30000 | –
28 | C[C@]12CCC(CN(c3nc(OC[C@@]45CCCN4C[C@H](F)C5)nc4c(F)c(-c5cc(O)cc(Cl)c5OC(F)(F)F)c(F)cc34)C1)N2 [compound 244, 3-chloro-5-(6,8-difluoro-2-(((2RS,7aS)-2-fluorotetrahydro-1H-pyrrolizin-7a(5H)-yl)methoxy)-4-((1S,5R)-1-methyl-3,8-diazabicyclo[3.2.1]octan-3-yl)quina-zolin-7-yl)-4-(trifluoromethoxy)phenol] | 3.7 | – | IC50 [2, 3]: 161 nM
